Assay results from patent US20040072368A1, “Lipoprotein receptor” (priority 2002, published 2004).

Columns and labels:
HepG2 cells [1] = assay: TG-HDL2 internalisation assay; type: cell-based, human; details: for effect on internalisation of 125I-TG-HDL2: 75 μg/ml 125I-TG-HDL2, 10 min at 37° C., 10 μg/ml free-apoA-I, 100 nM ADP, 100 nM ATP, 0.2 U/ml apyrase, 100 nM EGF
Description: (§1) Panel 1, 2 and 3. TG-HDL2 and LDL internalization by HepG2 cells. Cells are incubated for 10 min at 37° C. with 75 μg/ml of ^125I-TG-HDL2 (panels 1 and 3), TG-HDL2 labelled with ^3H-cholesteryl ester (panel 1 “chol”) or ^1251-LDL (panel 2). Alternatively, 10 μg/ml free-apoA-I (A, G), 100 nM ADP (B, H), both free-apoA-I and ADP at the same concentrations as above (C), 100 nM ATP (D), 0.2 U/ml apyrase (E), 100 nM EGF (F), or increasing concentrations of 2MeS-ADP (▪) and ATPγS (□) (panel 3) are added to the incubation medium. Results are expressed as the percentage of stimulation related to the value of internalisation obtained without addition of any compound (corresponding to a value of 400 ng TG-HDL2/mg of cell protein). The same experiments are performed on IHH cells with similar results (data not shown).
HepG2 cells are incubated for 10 min at 37° C. in DMEM pH 6.6 with 75 μg/ml of ^125I-TGHDL 2 and in the presence of increasing concentrations of IF, without (panel A) or with (panel B) free-apoA-I (10 μg/ml). Results are expressed as the percentage of stimulation as referred to the value of internalisation obtained without addition of any compound (corresponding to a value of 400 ng TG-HDL2/mg of cell protein).
Cells are washed three times and pre-incubated for 30 min at 37° C. in serum free DMEM. ^125I triglyceride rich-HDL2 (75 μg/ml) are added on the cells and incubated at 37° C. for various time. Depending on the experiment, free apolipoprotein A-I (10 μg/ml) or other compounds, are added to the incubation medium. At each incubation time, cells are washed with cold DMEM and the release of radioactive ligands associated to the cell surface is performed at 4° C., for 90 min in DMEM. The radioactivity internalised into the cells and the protein content is determined as in the competition assays. Non-specific internalisation is analysed in the presence of an excess of 600 μg/ml of HDL3. Results are expressed as the percentage of stimulation related to the value of internalisation obtained without addition of any compound. The same method is used for the measurement of LDL internalisation.

HepG2 cells [2] = assay: LDL internalisation assay; type: cell-based, human; details: 10 μg/ml free-apoA-I or 100 nM ADP, 10 min at 37° C.
Description: as §1
Cells are washed three times and pre-incubated for 30 min at 37° C. in serum free DMEM. ^125I triglyceride rich-HDL2 (75 μg/ml) are added on the cells and incubated at 37° C. for various time. […] The radioactivity internalised into the cells and the protein content is determined as in the competition assays. Non-specific internalisation is analysed in the presence of an excess of 600 μg/ml of HDL3. Results are expressed as the percentage of stimulation related to the value of internalisation obtained without addition of any compound. […]

EGF receptor = EGF receptor internalisation by flow cytometry; type: cell-based, human; details: HepG2, 10 min pre-incubation, 10 μg/ml free-apoA-I or 100 nM ADP
Description: Panel 4. Internalisation of EGF receptor by HepG2 cells. Cells are pre-incubated for 10 min in serum-free medium with (J) or without (K) […] EGF, or with 10 μg/ml free-apoA-I (L), 100 nM ADP (M). The amount of EGF receptor is measured by Flow Cytometry using anti-EGF receptor antibody. As a control experiment for the efficacy of EGF receptor antibody, isotypic IgG are used (I). Results are expressed as the mean relative cell fluorescence and receptor internalisation is related to lower fluorescence.
(§2) For analysis of the cell surface EGF receptor, HepG2 cells are preincubated in medium with or without 20 nM EGF for 10 min at 37° C. For flow cytometry analysis, HepG2 and CHO cells are detached by incubation with Ca2+, Mg2+free PBS containing 2 mM EDTA, pH 7.4, fixed in 3% paraformaldehyde and pelleted in a microfuge. Cells are incubated at 20° C. for 1 h in PBS, pH 7.4 containing 1% BSA with either mouse monoclonal antibodies against the human β-subunit of ATP synthase, the human cytochrome oxidase subunit I, the human EGF receptor or against isotypic control IgG. Cells are washed in PBS/BSA 1% and incubated at 20° C. for 30 min with goat anti-rabbit IgG conjugated to fluorescein isothiocyanate. After a final wash, cells are pelleted and resuspended in PBS/BSA 1% at a density of 1×10^6 cells/ml. The mean relative fluorescence after excitation at a wavelength of 488 nm is determined for each sample on a Coulter XL 4C flow cytometer and analysed with CELLQUEST software (Becton-Dickenson).

HepG2 cells and IHH = assay: Cholesterol efflux; type: cell-based, human; details: for influence on cholesterol efflux: range of 1 nM to 10 μM
[3] = molecular target: T1, cell surface ATP synthase (Homo sapiens, UniProt P06576); assay: Cell surface ADP generation assay (ATP hydrolysis), HPLC/TLC; type: cell-based; details: HepG2
T1 construct: endogenous in cells; host or cells: HepG2
Description: (§3) ^32Pi and ADP (panels A and B) or [α-32P] ATP (panels C, D, E and F) are added to the HepG2 cell medium as described in Experimental Procedures, and the cells are incubated for 10 min at 37° C. with 10 μg/ml apoA-I (panels B and D), 100 nM IF1 (panel E), or both IF1 […] and apoA-I at the same concentrations as above (panel F). Control experiments are performed with neither apo AI nor IF1 added into the cell medium (panel A and C). Supernatants are recovered and analysed by HPLCs.
(§4) Confluent HepG2 in 6-well plates are washed in DMEM, then incubated at 37° C. for 10 min in DMEM pH 6.6 with 0.1 μCi [α-32P] ATP for ADP generation assay, or with 0.1 μCi 32Pi and ADP (100 nM final) for ATP generation assay. Depending on the experiment, IF1 (100 nM final) or apoA-I (10 μg/ml final) are added in the reaction mixture. Supernatants are removed and analysed using two different systems: 1) by HPLC coupled to a radioactivity detector on a Whatman Partisphere 5 SAX column (Whatman International Ltd., UK) as described previously (13); calibration is done with radiolabelled nucleotides. 2) by thin layer chromatography in the solvent NaCl 2.4%/NH4OH/H2O/MeOH (12.5/15/27.5/50, v/v); radioactive spots are counted by liquid scintillation.

rat liver = assay: TG-HDL2 internalisation by perfused rat liver (in situ); type: in vivo
Description: The liver from male Whistar rats (7-8 weeks old) were perfused in situ during 45 minutes at 37° C. in Ringer medium (pH 6.8) with 35 μg/ml of 1251-TG-HDL2 with or without 1 μM IF1. Livers were then extensively washed at 4° C. and radioactivity counted. n=7 per group. Values represent means±SEM, with p<0.02 (unpaired t-test). Control fluorescence-assisted flow cytometry experiments have shown the presence of both the Band a-chain ATP synthase at the cell surface of isolated rat hepatocytes (not shown).

[4] = molecular target: T2, β-subunit of ATP synthase (Homo sapiens, UniProt P06576); assay: Flow cytometry detection of cell surface β-subunit of ATP synthase; type: cell-based; details: excess of free-apoA-I (100 nM), HepG2 cells
T2 construct: endogenous in cells; host or cells: HepG2 (ATCC)
Description: HepG2 and CHO cells were analyzed by fluorescence-assisted flow cytometry. Plots are shown for HepG2 (panel A) and CHO (panel C) where solid lines represent cells incubated with an anti b-subunit of ATP synthase mouse monoclonal IgG2a in absence (e) or presence (d) of 100 nM apoA-I, 250 μg/ml of FI-ATPase (c) or incubated with an isotypic control mouse IgG2a (a) and […] anti cytochrome oxidase subunit I mouse monoclonal IgG2a (b, dashed lines). In panel B and D, the histograms are expressed as the mean relative fluorescence of the curves a to e on HepG2 (B) or CHO cells (D).
as §2, with “Cells are washed in PBS/BSA 1% and incubated at 20° C. for 30 min with goat anti-rabbit IgG conjugated to fluorescein isothiocyanate. After a final wash, cells are pelleted and resuspended in PBS/BSA 1% at a density of 1×10^6 cells/ml.” left out

HepG2 cells [5] = assay: Competitive inhibition of binding of 125I-labeled apoA-I to HepG2 cells; set-up: species or system human; details: 1 μg/ml 125I-apoA-I, no competitor, 2 h at 4° C.
Description: HepG2 cells (panel A) and submitochondrial particles (panel B) are incubated for 2 h at 4° C. in the presence of 1 μg/ml ^125I-labeled apoA-1 and 5 μg/ml ^125I-labeled HDL3 respectively, in the presence of increasing concentrations of either unlabeled apoA-I (◯, panel A), unlabeled HDL3 (●, panel B), anti β-subunit of ATP synthase mouse monoclonal IgG2a (□) or purified isotype mouse IgG2a (♦). The 100% specific binding corresponds to 25,5 ng apoA-I bound per mg of cell proteins (panel A) and 2050 ng HDL3 protein bound per mg of mitochondrial proteins (panel B). Fab fragments from anti-β-subunit of ATP synthase are also used as competitors and results are identical to anti β-subunit IgG2a (data not shown). The results are representative of three independent series of experiments.
The competition experiments are performed at 4° C. for 2 h as previously described (6). […] Cells are washed twice with ice-cold PBS (maximum washing time is 15 s), lysed with 500 μl of 0.1 N NaOH, and the NaOH digest is used for radioactivity measurement and protein determination. […] Filters are used for radioactivity measurements. […] Data are expressed as the percentage of the specific binding measured in the absence of competitor versus the log of competitor concentration (in nM).

[6] = molecular target: T1, cell surface ATP synthase; assay: Cell surface ATP generation assay (ATP synthesis), HPLC/TLC; type: cell-based; details: 10 μg/ml free-apoA-I, 10 min, HepG2
Description: as §3, §4

T1 sequence (P06576 48-529): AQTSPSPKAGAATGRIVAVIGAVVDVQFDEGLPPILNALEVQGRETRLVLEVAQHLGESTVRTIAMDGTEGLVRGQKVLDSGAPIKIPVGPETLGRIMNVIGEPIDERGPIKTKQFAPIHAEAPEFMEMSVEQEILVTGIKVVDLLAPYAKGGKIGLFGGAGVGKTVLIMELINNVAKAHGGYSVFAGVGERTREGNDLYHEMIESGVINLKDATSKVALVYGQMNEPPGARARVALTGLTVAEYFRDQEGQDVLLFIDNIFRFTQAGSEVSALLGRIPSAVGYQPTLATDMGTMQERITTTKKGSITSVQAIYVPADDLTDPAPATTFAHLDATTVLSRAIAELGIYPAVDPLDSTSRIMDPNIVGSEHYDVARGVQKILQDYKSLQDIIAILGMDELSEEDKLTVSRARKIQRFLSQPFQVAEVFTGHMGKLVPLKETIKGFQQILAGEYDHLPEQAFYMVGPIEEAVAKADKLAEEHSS
T1 sequence (P25705 44-553 partner): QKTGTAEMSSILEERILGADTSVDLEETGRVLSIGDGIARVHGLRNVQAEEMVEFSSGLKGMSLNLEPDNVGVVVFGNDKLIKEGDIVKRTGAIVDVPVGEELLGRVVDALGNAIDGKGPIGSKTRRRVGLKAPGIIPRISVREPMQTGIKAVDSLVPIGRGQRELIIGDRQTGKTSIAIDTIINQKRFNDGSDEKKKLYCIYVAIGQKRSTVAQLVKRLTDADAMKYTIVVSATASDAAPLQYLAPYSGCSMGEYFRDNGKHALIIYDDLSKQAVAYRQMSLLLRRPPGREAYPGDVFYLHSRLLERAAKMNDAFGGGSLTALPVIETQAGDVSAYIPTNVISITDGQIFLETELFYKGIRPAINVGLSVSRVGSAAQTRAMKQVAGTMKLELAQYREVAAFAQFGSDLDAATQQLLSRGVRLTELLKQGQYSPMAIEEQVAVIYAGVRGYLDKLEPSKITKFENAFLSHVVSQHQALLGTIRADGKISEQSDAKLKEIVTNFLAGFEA
T1 sequence (P36542 26-298 partner): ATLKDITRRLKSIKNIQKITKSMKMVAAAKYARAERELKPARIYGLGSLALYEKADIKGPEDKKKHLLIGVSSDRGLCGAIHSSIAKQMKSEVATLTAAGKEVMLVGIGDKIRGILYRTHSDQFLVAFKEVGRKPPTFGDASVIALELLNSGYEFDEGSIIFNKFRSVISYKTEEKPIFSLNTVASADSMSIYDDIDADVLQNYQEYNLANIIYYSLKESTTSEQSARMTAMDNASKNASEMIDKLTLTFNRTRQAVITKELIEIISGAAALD
T1 sequence (P30049 23-168 partner): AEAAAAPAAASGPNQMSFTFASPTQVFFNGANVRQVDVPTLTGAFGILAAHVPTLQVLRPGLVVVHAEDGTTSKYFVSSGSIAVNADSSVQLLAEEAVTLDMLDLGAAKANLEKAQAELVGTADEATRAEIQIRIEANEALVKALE
T1 sequence (P56381 2-51 partner limits assumed): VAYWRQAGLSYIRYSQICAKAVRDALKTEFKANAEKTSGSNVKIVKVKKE
T2 sequence (P06576 48-529): as the sequence (P06576 48-529) above
T2 sequence (P25705 44-553 partner): as the sequence (P25705 44-553 partner) above
T2 sequence (P36542 26-298 partner): as the sequence (P36542 26-298 partner) above
T2 sequence (P30049 23-168 partner): as the sequence (P30049 23-168 partner) above
T2 sequence (P56381 2-51 partner limits assumed): as the sequence (P56381 2-51 partner limits assumed) above

Compound: CSc1nc(N)c2ncn([C@@H]3O[C@H](COP(=O)(O)OP(=O)(O)O)[C@@H](O)[C@H]3O)c2n1 [2MeS-ADP]
- effect on TG-HDL2 endocytosis (HepG2 cells [1]; 2MeS-ADP at 10 to 100 nM): stimulatory effect
- effect on TG-HDL2 endocytosis (HepG2 cells [1]; 2MeS-ADP at higher concentrations (1 μM to 10 μM)): inhibition of endocytosis

Compound: Nc1ncnc2c1ncn2[C@@H]1O[C@H](COP(=O)(O)OP(=O)(O)O)[C@@H](O)[C@H]1O [ADP, reference compound]
- effect on internalisation of 125I-TG-HDL2 (HepG2 cells [1]): stimulates
- stimulation of endocytosis of 125I-labeled LDL (HepG2 cells [2]): no stimulation
- number of EGF-R at the cell surface (EGF receptor): neither free apoA-I (FIG. 6-4L) nor ADP (FIG. 6-4M) are able to reduce
- influence on cholesterol efflux (HepG2 cells and IHH): no influence

Compound: Nc1ncnc2c1ncn2[C@@H]1O[C@H](COP(=O)(O)OP(=O)(O)OP(=O)(O)O)[C@@H](O)[C@H]1O [ATP]
- effect on internalisation of 125I-TG-HDL2 (HepG2 cells [1]): small stimulation

Compound: Nc1ncnc2c1ncn2[C@@H]1O[C@H](COP(=O)(O)OP(=O)(O)OP(O)(O)=S)[C@@H](O)[C@H]1O [ATPγS]
- stimulation of TG-HDL2 endocytosis (HepG2 cells [1]; ATPγS at 10 μM): 15%
- effect on TG-HDL2 endocytosis (HepG2 cells [1]; ATPγS at low concentrations): weak effect

Compound: EGF: known to induce endocytosis of the EGF receptor (NSDSECPLSHDGYCLHDGVCMYIEALDKYACNCVVGYIGERCQYRDLKWWELR; Epidermal growth factor; UniProt P01133 971-1023, looked up)
- effect on internalisation of 125I-TG-HDL2 (HepG2 cells [1]): does not stimulate
- number of EGF-R at the cell surface (EGF receptor): strongly reduces

Compound: IF1: natural inhibitor protein of mitochondrial F1-ATPase, inhibits the hydrolytic activity of the ATP synthase
- decrease of [α-32P]-ADP generated as compared to control ([3]; 100 nM IF1, 10 min at 37° C.): 48%
- effect on the free-apoA-I stimulation of ATP hydrolysis ([3]; 100 nM IF1 plus 10 μg/ml apoA-I, 10 min at 37° C.): could inhibit the stimulatory effect
- effect on stimulation of TG-HDL2 endocytosis by free-apoA-I (HepG2 cells [1]; higher concentrations of IF1, with free-apoA-I 10 μg/ml, DMEM pH 6.6): completely abolish
- effect on TG-HDL2 internalisation (HDL endocytosis) (HepG2 cells [1]; increasing concentrations of IF1, without free-apoA-I, DMEM pH 6.6, 10 min at 37° C.): dramatic decrease
- influence on cholesterol efflux (HepG2 cells and IHH): no influence
- TG-HDL2 internalisation by perfused rat liver (rat liver; 1 μM IF1, 35 μg/ml 125I-TG-HDL2, 45 minutes at 37° C., means±SEM, n=7): 2.597 ± 1.026 μgTG-HDL2/g of liver
- decrease of TG-HDL2 internalisation by the liver (rat liver; perfused rat liver, 45 min, 1 μM IF1): up to 45%

Compound: apyrase
- effect on internalisation of 125I-TG-HDL2 (HepG2 cells [1]): completely abolishes

Compound: free-apoA-I: major apoprotein of HDL, single polypeptide chain of 243 amino acid residues, isolated from HDL3 by ion-exchange chromatography
- reduction of immunoreactivity of the anti β-subunit antibody [4]: more than 3 fold
- 100% specific binding (HepG2 cells [5]): 25,5 ng apoA-I bound per mg of cell proteins
- increase of [α32P]-ADP generated from [α-32P]-ATP ([3]; 10 μg/ml apoA-I, 10 min at 37° C.): up to 79%
- ATP synthesis from ADP plus 32Pi [6]: no synthesis of ATP is detected
- radioactivity internalised into the cells (125I-labeled TG-HDL2) (HepG2 cells [1]; increasing free-apoA-I from 0.1 to 20 μg/ml, HepG2 or IHH cells, preliminary experiment): increased
- stimulation of endocytosis of 125I-labeled LDL (HepG2 cells [2]): no stimulation
- number of EGF-R at the cell surface (EGF receptor): neither free apoA-I (FIG. 6-4L) nor ADP (FIG. 6-4M) are able to reduce
- stimulation of the cholesterol efflux (HepG2 cells and IHH; free-apoA-I): 2 to 2.5 fold
